The values below come from patent US20170281573A1, “MEDICINAL COMPOSITION FOR ENHANCED DELIVERY OF TRITERPENES” (PHARCON INC., priority 2016, published 2017).

Where a name gives a salt, the structure may show the parent alone.

The data set can be described thus: Water solubility. The data set is classed as physicochemical.

For the compound `C[C@H]1[C@H](C)CC[C@]2(C(=O)O)CC[C@]3(C)C(=CC[C@@H]4[C@@]5(C)C[C@@H](O)[C@H](O)C(C)(C)[C@@H]5CC[C@]43C)[C@H]12` [Corosolic acid], the water solubility result was “below 1 mcg/ml”. For the compound `C[C@H]1[C@H](C)CC[C@]2(C(=O)O)CC[C@]3(C)C(=CC[C@@H]4[C@@]5(C)C[C@@H](O)[C@H](O)C(C)(C)[C@@H]5CC[C@]43C)[C@H]12` [sodium salt of this acid], the water solubility entry was “less than 5 mcg/ml”.
